Assay results taken from patent publication US20070203066A1, “Compositions and methods for inhibiting cellular proliferation” (priority 2005, published 2007).
Non-standard residues stand in square brackets, D forms with d. Primed or numbered codes have the meaning given here. No end group written: not given here. Ida = iminodiacetic acid linker, its two carboxyls bind the Lys side-chain amines of two peptides, giving a homodimer; Ida(3) = iminodiacetic acid linker, Lys side-chain amines bound to its two carboxyl groups; Ida(4) = iminodiacetic acid linker (dimerization linker bound to lysine side chain); Ida″ = iminodiacetic acid linker bound to the Lys side-chain amine, forming a dimer; Dip = N[C@H](C(=O)O)C(c1ccccc1)c1ccccc1; Phg = N[C@H](C(=O)O)c1ccccc1; GP3 = not defined here; Ahx = NCCCCCC(=O)O

system: HUVECs; type: cell-based; details: HUVEC proliferation, bFGF at 10 ng/ml or VEGF at 5 ng/ml, 48 hours, BrdU incorporation; read-out: IC50 on HUVECs
Method in brief: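 Proliferation read-out: BrdU incorporation after 48-hour culture (37 ° C, 5% CO2) with graded peptide doses. Cells were in EBM with 2% FCS at 5,000 per well, driven by VEGF (5 ng/ml) or bFGF (10 ng/ml), added after ≥12-hour attachment.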

Substance | IC50
104 (Ac-KTKRKRKKQRVKIIFVQNM; also: homodimer via C-terminal Lys linker) [compound 104] | < 10 µM
493 (Ac-ARRRNQPVAIKF; not fully specified (residue 11); also: homodimer: Lys11 side chain bound to Ida linker (Boc on Ida N)) [compound 493] | > 30 µM
231 (XRRHRQRVRIIF; Xaa = Acylated Histidine; Dimeric peptide wherein the C terminus of Phe in position 12 of one peptide chain is covalently bound to one of the amino groups of a Lysine linker and Phe of the remaining peptide chain is covalently bound to the other amino group of the Lysine linker.) [compound 231] | < 10 µM
236 (Ac-RHRHRQRVRIIF; also: dimer via C-terminal Phe to Lys linker) [compound 236] | < 10 µM
KTKRKRKKQRVKIAYE [compound 35] | > 30 µM
462 (Ac-ARRRRK(Ida(3))AVAIYF; also: homodimer via Ida linker on Lys side chains, linker at 6 via Ida, other end not in the chain) [compound 462] | 10 to 30 µM
428 (Ac-ARRRRQAVAIK(GP3)F; reading uncertain; also: homodimer via GP3 linker at K11) [compound 428] | < 10 µM
KTKRKRKKQRVKIAYEEVFVKNM [compound 6] | < 10 µM
494 (Ac-PRNRRQAVAIYFK(Ida″); not fully specified (C-terminus); also: homodimer via Ida linker on Lys13 side chain) [compound 494] | 10 to 30 µM
499 (Ac-PRYRRQAVAIYFK(Ida″); not fully specified (C-terminus); also: homodimer via Ida linker on Lys13 side chain) [compound 499] | < 10 µM
243 (Ac-RRHRRQRVHIIF; also: dimer via C-terminal Phe to Lys linker) [compound 243] | < 10 µM
384 (Ac-ARRRRQGVAIYFK-NH2; not fully specified (residue 13); also: homodimer via Ida linker on Lys13 side chain, Ida amine Boc) [compound 384] | < 10 µM
YGRKKRRQRRR [compound 445] | > 30 µM
RVKIAYEEIFVQNM [compound 44] | > 30 µM
207 (Ac-RRRARQAVRIIF; also: dimer: Phe C-termini joined via Lys linker) [compound 207] | < 10 µM
VKIAYEEIFVQNM [compound 43] | > 30 µM
ATKRKRKKQRVKIIFVQNM [compound 123] | < 10 µM
238 (Ac-RHRRRQHVRIIF; also: dimer via C-terminal Phe to Lys linker) [compound 238] | < 10 µM
368 (Ac-ARRRRQRVA[Dip]YFK-NH2; not fully specified (residue 13); printed as [AcARRRRQRVA3,3-diphenylAlaYFK*]; also: homodimer via Ida linker on Lys13 side chain, Boc on Ida amine) [compound 368] | < 10 µM

Substance | IC50
378 (Ac-ARRRRQRVAIQFK-NH2; not fully specified (residue 13); also: homodimer via Ida linker on Lys13 side chain, Ida amine Boc) [compound 378] | < 10 µM
301 (Ac-RRRRRQAVRITITFK-NH2; not fully specified (residue 15); also: homodimer: Lys15 side chain bound to Ida linker) [compound 301] | < 10 µM
453 (Ac-QRRRRQAVAIVFK-NH2; not fully specified (residue 13); also: homodimer via Ida linker at K13) [compound 453] | < 10 µM
KRKKQRVKIIF [compound 83] | > 30 µM
135 (KRKRKKQRVKI[Ahx][Ahx]IF; also: dimer: C-terminus of Phe15 of each chain bound to one amino group of a Lysine linker) [compound 135] | < 10 µM
285 (Ac-RRRRHQAVHIYFK-NH2; not fully specified (residue 13); also: homodimer via Ida linker on Lys13 side chain) [compound 285] | < 10 µM
500 (Ac-PRRNRQAVAIYFK(Ida″); not fully specified (C-terminus); also: homodimer via Ida linker on Lys13 side chain) [compound 500] | < 10 µM
389 (Ac-ARRRRQAVGIYFK-NH2; not fully specified (residue 13); also: homodimer via Ida linker on Lys13 side chain, Ida amine Boc) [compound 389] | < 10 µM
KTKRKRKKQRVKIAYEQNM [compound 40] | > 30 µM
KTKRKRKKQRVEEIFVQNM [compound 31] | > 30 µM
KKQRVKIAYEEIFVQNM [compound 24] | > 30 µM
51 (Ac-KTKRKRKKQRVKIAYEEIFVQNMK; also: homodimer via Ida linker on Lys24 side chain) [compound 51] | < 10 µM
323 (Ac-RHRRRQHVRIYFK(Ida)-NH2; also: homodimer via Ida linker on Lys13 side chain) [compound 323] | < 10 µM
436 (Ac-RRRRLQAVAIYFK(Ida(4)); not fully specified (C-terminus); also: homodimer via Ida linker at K13) [compound 436] | < 10 µM
343 (Ac-ARRRRQRVAIY[Phg]K-NH2; not fully specified (residue 13); also: homodimer via Lys13 side chain, Ida linker) [compound 343] | < 10 µM
261 (Ac-ARR[dR]RQRVAIIFK-NH2; not fully specified (residue 13); also: homodimer via Ida linker on Lys13 side chains) [compound 261] | < 10 µM
240 (Ac-RRHHRQRVRIIF; also: dimer via C-terminal Phe to Lys linker) [compound 240] | < 10 µM
336 (Ac-ARRRRQRVAIYFK-NH2; not fully specified (residue 13); also: homodimer via Lys13 side chain, Ida-PEG 20 kDa linker) [compound 336] | < 10 µM
437 (Ac-RRRRMQAVAIYFK(Ida(4)); not fully specified (C-terminus); also: homodimer via Ida linker at K13) [compound 437] | < 10 µM

Substance | IC50
421 (Ac-RRRRRQAVAIKF; not fully specified (residue 11); also: homodimer of residues 1-12 via Ida linker on K11 side chain) [compound 421] | < 10 µM
371 (Ac-ARRRRQRVAYYFK-NH2; not fully specified (residue 13); also: homodimer via Ida linker on Lys13 side chain, Boc on Ida amine) [compound 371] | < 10 µM
429 (Ac-ARRRRQAVAIK(Ida(4))FI; also: homodimer via Ida linker at K11) [compound 429] | < 10 µM
282 (Ac-RRRRAQHVAIYFK-NH2; not fully specified (residue 13); also: homodimer: Lys13 side chain bound to Ida linker) [compound 282] | < 10 µM
251 (Ac-RRRRRQAVAIPFK; not fully specified (C-terminus); also: homodimer: side chain of Lys13 bound to an Ida linker) [compound 251] | > 30 µM
400 (Ac-DRRRRQAVAIYFK; not fully specified (residue 13, C-terminus); also: homodimer of residues 1-13 via Ida linker at Lys13 side chain) [compound 400] | < 10 µM
KKSSKRAKTQRRRKSFVKMYENIH [compound 8] | > 30 µM
495 (Ac-PRERRQAVAIYFK(Ida″); not fully specified (C-terminus); also: homodimer via Ida linker on Lys13 side chain) [compound 495] | > 30 µM
250 (Ac-RRRRRQAVAIHFK; not fully specified (C-terminus); also: homodimer: side chain of Lys13 bound to an Ida linker) [compound 250] | < 10 µM
KTKRKRKKQRVAIIFVQNM [compound 112] | < 10 µM
237 (Ac-RHRRHQRVRIIF; also: dimer via C-terminal Phe to Lys linker) [compound 237] | < 10 µM
471 (Ac-PRRRFQAVAIYFK(Ida(3)); not fully specified (C-terminus); also: homodimer via Ida linker on Lys13 side chain) [compound 471] | > 30 µM
423 (Ac-ARRRRQRVAIKFV; not fully specified (residue 11); also: homodimer of residues 1-13 via Ida linker on K11 side chain) [compound 423] | < 10 µM
TKRKRKKQRVKIAYEEIFV [compound 60] | 10 to 30 µM
178 (Ac-RRRRRQAVRIIF; also: dimer: C-terminus of Phe12 of each chain bound to one amino group of a Lys linker) [compound 178] | < 10 µM
264 (Ac-[dA]RRRRQRVAIIFK-NH2; not fully specified (residue 13); also: homodimer via Ida linker on Lys13 side chains) [compound 264] | < 10 µM
469 (Ac-ARRRRQRVAIYFKARRRRQRVAIYFK; not fully specified) [compound 469] | < 10 µM
KTKRKRKKQRVKIIF [compound 79] | > 30 µM
